“Also recorded” adds a separate entry of the source.
What was measured:
[1] = test system: K14-HPV16/E2 and MMTV-PyMT lesions and tumors; assay: Fluorescent AGR peptide homing to lesions and tumors of K14-HPV16/E2 and MMTV-PyMT mice; format: in vivo, mouse
Method: The frozen sections were prepared for immunohistological analysis.

[2] = test system: K14-HPV16/E2 cervical dysplasia; assay: In vivo phage homing to K14-HPV16/E2 cervical dysplasia (CIN-3); set-up: species or system mouse
Method: (§1) The following cell lines were maintained in DMEM supplemented with 10% FCS: C8161 human melanoma, MDA-MB-435 human breast cancer, KRIB human osteosarcoma, and human prostate cancer cells PPC1, DU145. LNCaP human prostate cancer cell line was grown in RPMI 1640 medium with 10 mM HEPES, 1 mM sodium pyruvate and 1.5 g/L sodium bicarbonate supplemented with 10% FCS. M12 human prostate cancer cell line was cultured in RPMI 1640 with 5 μg/ml insulin-transferrin-sodium selenite (ITS), 2.5 μg/ml fungizone, 50 μg/ml gentamycin, 0.2 μM dexamethasone, 10 ng/ml epidermal growth factor (EGF), and 5% FCS (Bae et al., 1998). To produce tumors, nude BALB/c and C56BL/6 mice were subcutaneously (C8161, KRIB, and PPC1) or orthotopically ([…], PPC1, DU145, M12, and LNCaP) injected with 1×10^6 tumor cells. Transgenic mouse tumor models included TRAMP prostate cancer, MMTV-PyMT breast cancer, and K14-HPV16 cervical cancer. To initiate cervical carcinogenesis, female K14-HPV16 mice (Arbeit et al., 1994) were treated with 17β-estradiol (E2; (Arbeit et al., 1996; Giraudo et al., 2004). Briefly, one-month-old virgin female transgenic (heterozygous K14-HPV16, 1203#1) and nontransgenic (FVB/n) mice were anesthetized with isoflurane, and continuous release pellets that deliver E2 at doses of 0.05 mg over 60 days (Innovative Research of America, Sarasota, Fla., USA) were implanted subcutaneously in the dorsal back skin. Subsequent pellets were implanted at 3 and 5 months of age for a total of 6 months of hormone treatment. K14-HPV16 mice were maintained in the FVB/n background (FVB/n; The Jackson Laboratory). The mice were maintained in accordance with the University of California, San Francisco (UCSF) institutional guidelines governing the care of laboratory mice. The animal experimentation was approved by Animal Research Committees at UCSF or The Burnham Institute.
(§2) In vivo homing specificity of phage was tested as described (Hoffman, 2004). Briefly, mice bearing tumors were anesthetized and intravenously injected with 5×10^9 pfu of phage. After 7 min, the mice were perfused through the heart with PBS containing 0.5% BSA. The tumor and control organs were dissected from each mouse and the phage were rescued and tittered. For histology analysis, the mice were perfused with 4% PFA 30 min after the injection of phage. Tissues were embedded in Tissue-Tek O.C.T. and 5 μm sections were prepared for phage immunostaining.

[3] = test system: cell suspension derived from pre-malignant prostate lesions; assay: Phage binding to cell suspension derived from pre-malignant prostate lesions; format: cell-based, mouse; details: phage clones
Method: (§3) An NNK-encoded CX7C library display on T7Select415-1 phage (Novagen) was prepared as previously described (Laakkonen et al., 2002). Phage selection and validation have been described (Hoffman, 2004). A two-step procedure was designed for the selection of peptides targeting the tumor lymphatic vessels of pre-malignant prostate lesions and prostate tumor. First, the phage library was incubated with cells derived from normal prostate to subtract the phage that bind to normal prostate. Second, the anti-podoplanin magnetic beads were used to isolate lymphatic endothelial cells. 2-3 rounds of ex vivo selection and 2-3 rounds of in vivo selections were performed. For the ex vivo selections, cell suspensions were prepared from normal prostates of tumor-free littermates of TRAMP mice, pre-malignant prostates of 14- to 16-week-old TRAMP mice, and tumor tissues of 25- to 28-week-old TRAMP mice. Collagenase IA (1 mg/ml, Sigma) was used to disperse the tissues. About 1×10^7 normal prostate cells were incubated at 4° C. for 3 hrs with […] plaque forming units (pfu) of T7 phage displaying a CX7C peptide library. The samples were centrifuged at 1200 rpm for 10 min, the supernatant (the normal prostate-subtracted phage library) was recovered and then incubated overnight at 4° C. with 5×10^7 cells derived from pre-malignant prostate tissue or prostate tumor. The cells were washed to remove unbound phage, incubated with rat anti-mouse podoplanin for 45 min at 4° C., and washed three times with cold PBS containing 0.5% BSA. Podoplanin-positive cells were then isolated using M450 sheep anti-rat IgG Dynabeads (M450; Dynal, Oslo, Norway). Phage that bound to the podoplanin-positive cell population were rescued and amplified in E. coli. In vivo phage library screening was performed as described (Laakkonen et al., 2002).

[4] = test system: PPC1 orthotopic xenografts; assay: In vivo phage homing to PPC1 orthotopic xenografts; set-up: species or system mouse; details: for phage homing to PPC1 orthotopic xenografts (in words): i.v. injected phage
Method: as §1, §2

[5] = test system: PPC1 tumor-derived cell suspensions; assay: REA phage binding to PPC1 tumor-derived cell suspensions; format: cell-based; details: listed as REA-phage
PPC1 s.c. xenografts = assay: In vivo phage homing to PPC1 s.c. xenografts; set-up: species or system mouse
Method: as §1
In vivo homing specificity of phage was tested as described (Hoffman, 2004). Briefly, mice bearing tumors were anesthetized and intravenously injected with 5×10^9 pfu of phage. […]

cultured PPC1 cells = assay: REA phage binding to cultured PPC1 cells; format: cell-based, human; details: listed as REA-phage
[6] = test system: LNCaP orthotopic xenografts; assay: In vivo phage homing to LNCaP orthotopic xenografts; set-up: species or system mouse; details: for phage homing to LNCaP xenografts (in words): i.v. injected phage
Method: as §1, §2

[7] = test system: MDA-MB-435 orthotopic xenografts; assay: In vivo phage homing to MDA-MB-435 orthotopic xenografts; set-up: species or system mouse
Method: as §1, §2

[8] = test system: tumor derived cell suspensions (TRAMP); assay: Phage binding to TRAMP tumor derived cell suspensions; format: cell-based, mouse; details: phage clones
Method: as §3

K14-HPV16 skin cancer = assay: In vivo homing to K14-HPV16 skin cancer; set-up: species or system mouse
Method: as §1, §2

[9] = test system: M12 orthotopic xenografts; assay: In vivo phage homing to M12 orthotopic xenografts; set-up: species or system mouse; details: for phage homing to M12 xenografts (in words): i.v. injected phage
Method: as §1, §2

[10] = test system: DU145 orthotopic xenografts; assay: In vivo phage homing to DU145 orthotopic xenografts; set-up: species or system mouse; details: for phage homing to DU145 xenografts (in words): i.v. injected phage
Method: as §1, §2

[11] = phage homing in vivo, K14-HPV16/E2 cervical dysplasia
[12] = phage homing in vivo, PPC1 orthotopic xenografts
[13] = phage homing in vivo, PPC1 s.c. xenografts
[14] = phage homing in vivo, LNCaP orthotopic xenografts
[15] = phage homing in vivo, MDA-MB-435 orthotopic xenografts
[16] = phage homing in vivo, K14-HPV16 skin cancer
[17] = phage homing in vivo, M12 orthotopic xenografts
[18] = phage homing in vivo, DU145 orthotopic xenografts

CAGRRSAYC [homing peptide for pre-malignant TRAMP prostate lesions]
peptide binding to MMTV-PyMT dysplastic breast lesion [1]: weakly positive
peptide homing to lesions or malignant tumors in K14-HPV16/E2 and MMTV-PyMT models [1]: no detectable homing of the peptide
phage homing to K14-HPV16/E2 pre-malignant cervical lesions (in words) ([2]; i.v. injected phage): little homing of the phage
Fold over control phage [2, 11]: 5 fold
Specific Homing [2, 11]: No
binding to cell suspension from pre-malignant prostate lesions (in words) [3]: bound

CREAGRKAC [homing peptide for prostate tumor lymphatics]
phage homing to PPC1 orthotopic xenografts (in words) ([4]; listed as REA phage): homed
phage homing to PPC1 orthotopic xenografts (in words) ([4]; listed as REA-phage): Significant phage homing
Fold over control phage [4, 12]: 25 fold
Specific Homing [4, 12]: Yes
phage binding to PPC1 tumor-derived cell suspensions (in words) [5]: binds to cell suspensions derived from PPC1 tumors; also recorded: strongly bound
phage homing to subcutaneous PPC1 xenografts versus orthotopic (in words) (PPC1 s.c. xenografts; i.v. injected phage, 7 min circulation): homed less efficiently
Fold over control phage (PPC1 s.c. xenografts; [13]): 6 fold
Specific Homing (PPC1 s.c. xenografts; [13]): No
phage binding to cultured PPC1 cells (in words) (cultured PPC1 cells): not to cultured PPC1 cells; also recorded: did not bind
phage homing to LNCaP xenografts (in words) ([6]; listed as REA phage): homed
phage homing to LNCaP xenografts (in words) ([6]; listed as REA-phage): Significant phage homing
Fold over control phage [6, 14]: 20 fold
Specific Homing [6, 14]: Yes
phage homing to MDA-MB-435 tumors (in words) ([7]; i.v. injected phage): negative for REA binding
Fold over control phage [7, 15]: 4 fold
Specific Homing [7, 15]: No
binding to TRAMP tumor derived cell suspensions (in words) [8]: robust binding
homing to K14-HPV16 skin cancers (in words) (K14-HPV16 skin cancer; i.v. injection, K14-HPV16 mice): negative for REA binding
Fold over control phage (K14-HPV16 skin cancer; [16]): 4 fold
Specific Homing (K14-HPV16 skin cancer; [16]): No
phage homing to M12 xenografts (in words) ([9]; listed as REA phage): homed
phage homing to M12 xenografts (in words) ([9]; listed as REA-phage): Significant phage homing
Fold over control phage [9, 17]: 24 fold
Specific Homing [9, 17]: Yes
phage homing to DU145 xenografts (in words) ([10]; listed as REA phage): homed
phage homing to DU145 xenografts (in words) ([10]; listed as REA-phage): Significant phage homing
Fold over control phage [10, 18]: 14 fold
Specific Homing [10, 18]: Yes

Source: patent US8536132B2, “Lymphatic zip codes in tumors and pre-malignant lesions” (Sanford-Burnham Medical Research Institute, priority 2006, dated 2013)
